Here are results for 20 compounds from patent US20250276964A1 (Novartis AG, priority 2021, published 2025).

This assay addresses T1, WIZ (Homo sapiens, UniProt O95785+Q96SW2).
T1 construct: expressed in transfected cells
Nature of the assay: Quantification of WIZ protein levels in HiBit tag fusion protein assay (WIZ HiBit assay in 293T cells). Type of assay: cell-based. The settings on record: for Dmax at 25 µM / remaining activity at 25 µM: HEK-293T; for Dmax at 25 µM: read-out: % degradation of WIZ (100-Amax); for remaining activity at 25 µM: read-out: WIZ Amax; for DC50: WIZ HiBit assay in 293T cells, 10-point, 5-fold dilution, highest concentration 25 μM, about 18 hours, read-out: WIZ AC50. The protocol: The HiBit system from Promega was used to develop high-throughput and quantitative assays to measure changes in WIZ protein levels in response to compounds. The HiBit tag was derived from a split Nanoluciferase and has the following protein sequence: […] (SEQ ID NO: 1). The complementary fragment of Nanoluciferase (known as LgBit, from Promega), was added to the HiBit tag to form an active Nanoluciferase enzyme whose activity can be precisely measured. In this way, the levels of a fusion protein with the HiBit tag can be quantified in cell lysates.
Lentiviral vectors, based on the Invitrogen™ pLenti6.2/V5 DEST backbone were constructed that places the HiBit tag upstream of WIZ and expressed the fusion protein from an HSVTK promotor.
To ensure moderate and consistent expression of the HiBit-WIZ fusion protein across all cells in the population, stable cell lines were constructed from cells harboring a single copy of the construct. Lentivirus packaged with the constructs were made using the ViraPower™kit from Invitrogen™. 293T cells from ATCC (Catalog number: CRL-3216), were infected with the virus at low multiplicity of infection and selected by 5 μg/mL blasticidin in culture media for 2 weeks.
The levels of HiBit-WIZ tagged fusion proteins in compound-treated cell lines were measured as follows:
On day 1, cells were diluted to 1.0×10^6 cells/ml in normal growth medium. 20 μL of cell suspension were plated in each well of a solid white 384-well plate. Plates were incubated overnight in a 37° C. and 5% CO2 humidified tissue culture incubator.
On day 2, serial dilutions of compounds were made in 384-well plates. Compound plates were set up with DMSO in columns 1, 2, 23, 24, and 10-point compound dilution series in column 3-12 and column 13-22. 10 mM stock solution of compound were placed into column 3 or 13 and a 1:5 serial dilution was carried out until there was a 10-point dilution series per compound. 50 nL of diluted compounds were transferred into the plated cells by Echo® (Labcyte) acoustic transfer. The highest concentration of compound was 25 μM. Plates were incubated overnight (about 18 hours) in a 37° C. and 5% CO2 humidified tissue culture incubator.
On day 3, plates were removed from the incubator and allowed to equilibrate at room temperature for 60 minutes. HiBit substrate (Nano-Glo® HiBit Lytic Detection System, Promega Catalogue number: N3050) was added as described by the manufacturers protocols. Plates were incubated at room temperature for 30 minutes and luminescence was read using an EnVision® reader (PerkinElmer®). Data was analyzed and visualized using the Spotfire® software package.
WIZ Amax reflects the DMSO-normalized, curve-fitted percentage of WIZ-HiBit remaining at 25 uM. It was calculated by normalizing DMSO controls to 100%, parametric curve fitting of the dose response data (10-point, 5-fold), followed by calculation of response at 25 uM using the fitted equation (nd=not determined).

[1] abbreviates: DMSO-normalized, curve-fitted percentage of WIZ-HiBit remaining at 25 uM.

SMILES strings stand for the structures.

T1 sequence (O95785 whole entry): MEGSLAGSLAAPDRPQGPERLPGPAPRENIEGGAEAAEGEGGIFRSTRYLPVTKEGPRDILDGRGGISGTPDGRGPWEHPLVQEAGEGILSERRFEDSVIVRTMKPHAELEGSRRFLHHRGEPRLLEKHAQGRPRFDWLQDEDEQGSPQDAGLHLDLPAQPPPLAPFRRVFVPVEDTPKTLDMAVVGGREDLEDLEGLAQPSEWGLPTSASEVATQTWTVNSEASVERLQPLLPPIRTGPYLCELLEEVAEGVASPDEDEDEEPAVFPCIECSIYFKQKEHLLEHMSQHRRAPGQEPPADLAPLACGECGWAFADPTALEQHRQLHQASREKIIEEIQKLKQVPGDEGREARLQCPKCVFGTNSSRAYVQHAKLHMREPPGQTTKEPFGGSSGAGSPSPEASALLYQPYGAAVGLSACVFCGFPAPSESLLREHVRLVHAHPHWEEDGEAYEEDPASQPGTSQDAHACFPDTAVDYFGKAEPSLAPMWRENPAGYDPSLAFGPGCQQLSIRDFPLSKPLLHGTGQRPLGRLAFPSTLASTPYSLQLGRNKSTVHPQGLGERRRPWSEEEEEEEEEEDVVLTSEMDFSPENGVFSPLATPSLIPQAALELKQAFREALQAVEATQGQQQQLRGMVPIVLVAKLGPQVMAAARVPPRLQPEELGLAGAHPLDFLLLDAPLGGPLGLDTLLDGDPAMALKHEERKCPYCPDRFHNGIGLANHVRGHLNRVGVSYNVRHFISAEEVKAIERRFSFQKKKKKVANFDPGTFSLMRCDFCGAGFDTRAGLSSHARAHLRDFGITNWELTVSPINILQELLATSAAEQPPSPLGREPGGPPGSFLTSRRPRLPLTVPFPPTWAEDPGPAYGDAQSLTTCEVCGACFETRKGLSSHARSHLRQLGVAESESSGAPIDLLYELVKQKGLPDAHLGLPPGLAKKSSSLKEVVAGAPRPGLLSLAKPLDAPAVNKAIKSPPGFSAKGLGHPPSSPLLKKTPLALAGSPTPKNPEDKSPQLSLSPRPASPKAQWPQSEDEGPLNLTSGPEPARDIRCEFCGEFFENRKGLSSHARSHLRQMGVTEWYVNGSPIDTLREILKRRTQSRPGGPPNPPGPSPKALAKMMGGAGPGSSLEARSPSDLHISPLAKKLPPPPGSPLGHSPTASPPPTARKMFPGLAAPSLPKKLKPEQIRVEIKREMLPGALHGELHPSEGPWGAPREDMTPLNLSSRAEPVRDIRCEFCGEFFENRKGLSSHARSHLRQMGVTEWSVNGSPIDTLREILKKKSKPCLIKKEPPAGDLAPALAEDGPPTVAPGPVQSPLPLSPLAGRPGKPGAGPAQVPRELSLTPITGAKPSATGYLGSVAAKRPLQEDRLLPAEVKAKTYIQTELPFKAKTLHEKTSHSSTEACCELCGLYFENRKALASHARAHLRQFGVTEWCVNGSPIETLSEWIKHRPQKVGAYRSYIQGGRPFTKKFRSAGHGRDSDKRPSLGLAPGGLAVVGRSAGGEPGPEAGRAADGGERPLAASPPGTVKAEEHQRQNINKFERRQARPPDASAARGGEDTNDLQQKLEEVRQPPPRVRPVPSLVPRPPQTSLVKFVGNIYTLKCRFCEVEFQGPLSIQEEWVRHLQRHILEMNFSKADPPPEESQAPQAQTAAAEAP
T1 sequence (Q96SW2 whole entry): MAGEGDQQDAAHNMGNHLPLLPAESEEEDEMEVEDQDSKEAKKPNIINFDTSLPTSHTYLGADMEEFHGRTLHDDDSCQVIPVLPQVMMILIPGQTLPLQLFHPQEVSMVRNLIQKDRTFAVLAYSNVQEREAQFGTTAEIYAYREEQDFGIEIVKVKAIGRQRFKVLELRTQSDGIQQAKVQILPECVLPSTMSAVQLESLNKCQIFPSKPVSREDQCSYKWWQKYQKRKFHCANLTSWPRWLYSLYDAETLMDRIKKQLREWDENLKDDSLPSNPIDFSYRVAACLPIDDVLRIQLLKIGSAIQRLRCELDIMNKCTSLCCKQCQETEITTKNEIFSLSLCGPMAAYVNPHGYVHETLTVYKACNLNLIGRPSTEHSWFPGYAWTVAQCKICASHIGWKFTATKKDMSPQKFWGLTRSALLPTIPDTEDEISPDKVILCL
T1 sequence (Q16531 whole entry partner): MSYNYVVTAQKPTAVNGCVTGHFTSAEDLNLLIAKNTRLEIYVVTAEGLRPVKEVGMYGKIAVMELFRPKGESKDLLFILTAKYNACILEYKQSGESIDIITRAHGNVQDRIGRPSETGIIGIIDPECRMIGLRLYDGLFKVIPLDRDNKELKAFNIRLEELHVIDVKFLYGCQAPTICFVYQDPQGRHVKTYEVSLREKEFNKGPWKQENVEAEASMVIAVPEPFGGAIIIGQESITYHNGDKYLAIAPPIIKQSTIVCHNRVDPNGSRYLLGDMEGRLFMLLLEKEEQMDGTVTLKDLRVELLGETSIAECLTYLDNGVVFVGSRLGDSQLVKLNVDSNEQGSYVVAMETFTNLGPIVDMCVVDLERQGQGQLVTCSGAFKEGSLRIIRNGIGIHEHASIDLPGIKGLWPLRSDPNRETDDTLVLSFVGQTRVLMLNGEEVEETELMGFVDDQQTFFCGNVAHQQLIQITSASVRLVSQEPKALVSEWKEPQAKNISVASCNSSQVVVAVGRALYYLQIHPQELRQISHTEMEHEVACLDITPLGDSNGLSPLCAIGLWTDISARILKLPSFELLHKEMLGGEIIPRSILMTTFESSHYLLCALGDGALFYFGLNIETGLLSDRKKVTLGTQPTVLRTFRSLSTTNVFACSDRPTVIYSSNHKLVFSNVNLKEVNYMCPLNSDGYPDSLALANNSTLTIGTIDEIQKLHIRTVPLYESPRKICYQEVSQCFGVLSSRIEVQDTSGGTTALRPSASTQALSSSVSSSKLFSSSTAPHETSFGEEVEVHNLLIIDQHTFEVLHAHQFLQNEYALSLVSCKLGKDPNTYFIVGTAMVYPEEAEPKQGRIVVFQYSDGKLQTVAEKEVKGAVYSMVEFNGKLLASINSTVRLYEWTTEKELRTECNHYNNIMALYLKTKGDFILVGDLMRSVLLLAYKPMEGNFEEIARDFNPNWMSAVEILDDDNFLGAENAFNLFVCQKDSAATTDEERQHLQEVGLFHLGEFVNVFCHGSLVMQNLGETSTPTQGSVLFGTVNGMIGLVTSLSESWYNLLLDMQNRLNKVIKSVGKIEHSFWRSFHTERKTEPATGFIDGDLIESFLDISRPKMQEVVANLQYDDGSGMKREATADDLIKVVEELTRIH

With `CN1CCCN(Cc2ccc3onc(N4CCC(=O)NC4=O)c3c2)CC1` [Example 63, 1-(5-((4-methyl-1,4-diazepan-1-yl)methyl)benzo[d]isoxazol-3-yl)dihydropyrimidine-2,4(1H,3H)-dione], the DC50 was 0.028 µM. For the same compound, the Dmax at 25 µM (100 minus Amax at 25 uM) is 84%. Further, the remaining activity at 25 µM under setting [1] was found to be 16%.
In the case of `CN1CC2CCC1CN2Cc1ccc2onc(N3CCC(=O)NC3=O)c2c1` (single isomer, unassigned) [Example 124, 1-(5-((5-methyl-2,5-diazabicyclo[2.2.2]octan-2-yl)methyl)benzo[d]isoxazol-3-yl)dihydropyrimidine-2,4(1H,3H)-dione], the DC50 is 0.52 µM. For the same compound, under “100 minus Amax at 25 uM”, the “% degradation of WIZ (100-Amax)” value is 85%. The “WIZ Amax” value under setting [1] was found to be 15%.
For `C[C@@H]1CN(CC2COC2)CCN1Cc1ccc2onc(N3CCC(=O)NC3=O)c2c1` [Example 68, (R)-1-(5-((2-methyl-4-(oxetan-3-ylmethyl)piperazin-1-yl)methyl)benzo[d]isoxazol-3-yl)dihydropyrimidine-2,4(1H,3H)-dione], the DC50 is 0.04 µM. Further, the Dmax at 25 µM (100 minus Amax at 25 uM) came out at 83%. Also, the remaining activity at 25 µM under setting [1] was 17%.
For `O=C1CCN(c2noc3ccc(CN4CCN(C5CC5)CC4)cc23)C(=O)N1` [Example 119, 1-(5-((4-cyclopropylpiperazin-1-yl)methyl)benzo[d]isoxazol-3-yl)dihydropyrimidine-2,4(1H,3H)-dione], in that order: 0.189 µM, 86% and 14%.
Turning to `O=C1CCN(c2noc3ccc(CC4CCN(CC5CCC5)CC4)cc23)C(=O)N1` [Example 3, 1-(5-((1-(cyclobutylmethyl)piperidin-4-yl)methyl)benzo[d]isoxazol-3-yl)dihydropyrimidine-2,4(1H,3H)-dione], the DC50 worked out at 0.01 µM. Also, the Dmax at 25 µM (100 minus Amax at 25 uM) came out at 92%. Also, the remaining activity at 25 µM under setting [1] was 8%.
For `CC(C)CN1CCN(Cc2ccc3onc(N4CCC(=O)NC4=O)c3c2)CC1` [Example 24, 1-(5-((4-isobutylpiperazin-1-yl)methyl)benzo[d]isoxazol-3-yl)dihydropyrimidine-2,4(1H,3H)-dione], in that order: 0.037 µM, 89% and 11%.
For `CS(=O)(=O)N1C[C@H]2CC[C@@H](C1)N2Cc1ccc2onc(N3CCC(=O)NC3=O)c2c1` [Example 104, 1-(5-(((1R,5S)-3-(methylsulfonyl)-3,8-diazabicyclo[3.2.1]octan-8-yl)methyl)benzo[d]isoxazol-3-yl)dihydropyrimidine-2,4(1H,3H)-dione], in that order: 0.181 µM, 85% and 15%.
For `O=C1CCN(c2noc3ccc(CC4CCN(CC5CCCCC5)CC4)cc23)C(=O)N1` [Example 1, 1-(5-((1-(cyclohexylmethyl)piperidin-4-yl)methyl)benzo[d]isoxazol-3-yl)dihydropyrimidine-2,4(1H,3H)-dione], in that order: 0.0072 µM, 91% and 9%.
With `O=C1CCN(c2noc3ccc(CN4CCN5C(=O)COC[C@H]5C4)cc23)C(=O)N1` [Example 116, (R)-1-(5-((4-oxohexahydropyrazino[2,1-c][1,4]oxazin-8(1H)-yl)methyl)benzo[d]isoxazol-3-yl)dihydropyrimidine-2,4(1H,3H)-dione], the DC50 worked out at 0.193 µM. Further, the Dmax at 25 µM (100 minus Amax at 25 uM) came to 78%. The remaining activity at 25 µM under setting [1] is 22%.
For the compound `CS(=O)(=O)N1CC2CCC1CN2Cc1ccc2onc(N3CCC(=O)NC3=O)c2c1` (single isomer, unassigned) [Example 125, 1-(5-((5-(methylsulfonyl)-2,5-diazabicyclo[2.2.2]octan-2-yl)methyl)benzo[d]isoxazol-3-yl)dihydropyrimidine-2,4(1H,3H)-dione], the DC50 was 0.12 µM. Besides, the Dmax at 25 µM (100 minus Amax at 25 uM) is 85%. Moreover, under setting [1], the remaining activity at 25 µM is 15%.
As to `O=C1CCN(c2noc3ccc(CN4C[C@H]5C[C@@H]4CN5CC4CCOCC4)cc23)C(=O)N1` [Example 98, 1-(5-(((1R,4R)-5-((tetrahydro-2H-pyran-4-yl)methyl)-2,5-diazabicyclo[2.2.1]heptan-2-yl)methyl)benzo[d]isoxazol-3-yl)dihydropyrimidine-2,4(1H,3H)-dione], the DC50 is 0.05 µM. The Dmax at 25 µM (100 minus Amax at 25 uM) came out at 81%. Moreover, under setting [1], the remaining activity at 25 µM came out at 19%.
With `O=C1CCN(c2noc3ccc(CC4CCN(Cc5cccc(F)c5)CC4)cc23)C(=O)N1` [Example 7, 1-(5-((1-(3-fluorobenzyl)piperidin-4-yl)methyl)benzo[d]isoxazol-3-yl)dihydropyrimidine-2,4(1H,3H)-dione], the DC50 is 0.018 µM. The Dmax at 25 µM (100 minus Amax at 25 uM) turned out to be 91%. The remaining activity at 25 µM under setting [1] is 9%.
For `CN1CCC(Cc2ccc3onc(N4CCC(=O)NC4=O)c3c2)CC1` [Example 10, 1-(5-((1-methylpiperidin-4-yl)methyl)benzo[d]isoxazol-3-yl)dihydropyrimidine-2,4(1H,3H)-dione], the DC50 amounted to 0.045 µM. Further, where the note is “100 minus Amax at 25 uM”, the Dmax at 25 µM came out at 90%. Also, under setting [1], the remaining activity at 25 µM is 10%.
On the same counts, the results for `CC(C)(C)OC(=O)N1CCCC(Cc2ccc3onc(N4CCC(=O)NC4=O)c3c2)C1` (stereo not drawn) [Example 42, tert-butyl 3-((3-(2,4-dioxotetrahydropyrimidin-1 (2H)-yl)benzo[d]isoxazol-5-yl)methyl)piperidine-1-carboxylate] are 1.01 µM, 82% and 18%.
On to `C[C@@H]1CN(C)C[C@H](C)N1Cc1ccc2onc(N3CCC(=O)NC3=O)c2c1` [Example 108, 1-(5-(((2R,6S)-2,4,6-trimethylpiperazin-1-yl)methyl)benzo[d]isoxazol-3-yl)dihydropyrimidine-2,4(1H,3H)-dione], for which the DC50 came to 0.577 µM. Besides, the Dmax at 25 µM (100 minus Amax at 25 uM) was 69%. Besides, the remaining activity at 25 µM under setting [1] turned out to be 31%.
On the same counts, the results for `CN1[C@@H]2CC[C@H]1CC(Cc1ccc3onc(N4CCC(=O)NC4=O)c3c1)C2` (stereo partly drawn) [Example 58, 1-(5-(((1R,5S)-8-methyl-8-azabicyclo[3.2.1]octan-3-yl)methyl)benzo[d]isoxazol-3-yl)dihydropyrimidine-2,4(1H,3H)-dione] are 0.02 µM, 89% and 11%.
For `O=C1CCN(c2noc3ccc(CN4C[C@H]5CC[C@@H](C4)N5)cc23)C(=O)N1` [Example 100, 1-(5-(((1R,5S)-3,8-diazabicyclo[3.2.1]octan-3-yl)methyl)benzo[d]isoxazol-3-yl)dihydropyrimidine-2,4(1H,3H)-dione], in that order: 0.034 µM, 76% and 24%.
On the same counts, the results for `C[C@H]1CN(Cc2ccc3onc(N4CCC(=O)NC4=O)c3c2)CCN1CC1CCCCC1` [Example 28, (S)-1-(5-((4-(cyclohexylmethyl)-3-methylpiperazin-1-yl)methyl)benzo[d]isoxazol-3-yl)dihydropyrimidine-2,4(1H,3H)-dione] are 0.0054 µM, 90% and 10%.
On to `Cc1c(CN2CCN(CC3CC3)[C@@H](C)C2)ccc2onc(N3CCC(=O)NC3=O)c12` [Example 130, (S)-1-(5-((4-(cyclopropylmethyl)-3-methylpiperazin-1-yl)methyl)-4-methylbenzo[d]isoxazol-3-yl)dihydropyrimidine-2,4(1H,3H)-dione], for which the DC50 was 0.006 µM. Moreover, the Dmax at 25 µM (100 minus Amax at 25 uM) amounted to 86%. Under setting [1], the remaining activity at 25 µM was found to be 14%.
For `O=C1CCN(c2noc3ccc(CN4CCN5CCOC[C@H]5C4)cc23)C(=O)N1` [Example 110, (R)-1-(5-((hexahydropyrazino[2,1-c][1,4]oxazin-8(1H)-yl)methyl)benzo[d]isoxazol-3-yl)dihydropyrimidine-2,4(1H,3H)-dione], in that order: 0.065 µM, 85% and 15%.
